Results on one substance are retold here after US20180105863A1, “NEURAL STEM CELL THERAPY FOR OBESITY AND DIABETES” (ALBERT EINSTEIN COLLEGE OF MEDICINE, INC., priority 2012, published 2018).

The subject of the test is hypothalamic Notch signaling. In words: Daily third-ventricle injection of DLL4 in obese mice implanted with DNIκBα-hNSC. In kind it is in vivo. Here is the method:
In vivo implantation of hNSC with Notch inhibition counteracts obesity-T2D: Hypothalamic hNSC implantation was performed to investigate whether Notch inhibition could mimic IKKβ/NF-κB inhibition in counteracting obesity and related metabolic disorders. This investigation was also rationalized by the data showing that Notch signaling was robust (indicated by the active form of Notch 1 protein) in Sox2-positie cells of HFD-fed mice but not chow-fed mice (FIG. 7E). In the experiment, C57BL/6 mice received mediobasal hypothalamic injections of GFP-hNSC which carried Notch 1-4 shRNAs vs. control shRNA, and were then maintained on HFD vs. chow feeding. […] Thus, inhibition of Notch signaling can recapitulate the effect of NF-κB inhibition in the NSC implantation with respect to counteraction against HFD-induced obesity and metabolic disorders. Finally, hNSC implantation was employed to assess the IKKβ/NF-κB-Notch connection which was established in vitro. […] Therefore, NSC implantation can, at least, primarily employ neurogenetic program to counteract against metabolic disease, although other associated factors (such as inflammatory changes) probably also participate primarily or secondarily.

Take “DLL4: Notch protein ligand DLL4, injected daily into the third ventricle”: under “data not shown”, the DNIκBα-hNSC induced neurogenesis entry is “reversal of ^DNIκBα-hNSC induced neurogenesis” and the hypothalamic inflammation result is listed as “not an induction of hypothalamic inflammation”. For the same substance, the “anti-obesity effect of DNIκBα-hNSC implantation” value (mice already obese via chronic HFD feeding) is “significantly abolished the anti-obesity effect”.
